Several values for one entry are separate records, joined by “and”; a condition that tells them apart may be missing. Equal entries are not always repeated. Where two headings read alike, the source gives them in different places.
Tests used:
Assay in all cases: Disruption of BRAF RBD interaction with Ras (FRET / MOA assay, with Cyclophilin A)
Assay type in all cases: biochemical
KRAS G12C = KRAS G12C (Homo sapiens, UniProt P01116+P62937, G12C)
Text: (§1) This protocol may also be executed substituting other Ras proteins or nucleotides.
(§2) The purpose of this biochemical assay was to measure the ability of test compounds to facilitate ternary complex formation between a nucleotide-loaded K-Ras isoform and Cyclophilin A; the resulting ternary complex disrupts binding to a BRAF^RBD construct, inhibiting K-Ras signaling through a RAF effector. Data is reported as IC50 values.
(§3) Compound was present in plate wells as a 10-point 3-fold dilution series starting at a final concentration of 30 μM. After incubation at 25° C. for 3 hours, a mixture of Anti-His Eu-W1024 and anti-GST allophycocyanin was then added to assay sample wells at final concentrations of 10 nM and 50 nM, respectively, and the reaction incubated for an additional 1.5 hours. […] Compounds that facilitate disruption of a K-Ras:RAF complex were identified as those eliciting a decrease in the TR-FRET ratio relative to DMSO control wells.
as §2, with “BRAF^RBDD” for “BRAF^RBD”

KRAS G12D = KRAS G12D (Homo sapiens, UniProt P01116+P62937, G12D); conditions: read-out: KRAS G12D FRET data, IC50
Chain of KRAS G12D (P01116 1-169 isoform P01116-2 G12D limits assumed): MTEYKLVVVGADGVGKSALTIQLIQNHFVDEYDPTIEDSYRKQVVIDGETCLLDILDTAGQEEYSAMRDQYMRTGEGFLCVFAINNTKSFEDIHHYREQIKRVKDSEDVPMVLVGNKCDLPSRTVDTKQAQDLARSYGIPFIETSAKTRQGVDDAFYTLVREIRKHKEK
Chain of KRAS G12D (P62937 whole entry): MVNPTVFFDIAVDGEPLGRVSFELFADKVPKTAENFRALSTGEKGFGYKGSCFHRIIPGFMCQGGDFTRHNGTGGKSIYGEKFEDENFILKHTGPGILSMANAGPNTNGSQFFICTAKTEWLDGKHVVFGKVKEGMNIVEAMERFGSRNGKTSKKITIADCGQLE
Text: as §1, §2, §3
as §2, with “BRAF^RBDD” for “BRAF^RBD”

KRAS G12S = KRAS G12S (Homo sapiens, UniProt P01116+P62937, G12S); conditions: read-out: KRAS G12S FRET data, IC50
Chain of KRAS G12S (P01116 1-169 isoform P01116-2 G12S limits assumed): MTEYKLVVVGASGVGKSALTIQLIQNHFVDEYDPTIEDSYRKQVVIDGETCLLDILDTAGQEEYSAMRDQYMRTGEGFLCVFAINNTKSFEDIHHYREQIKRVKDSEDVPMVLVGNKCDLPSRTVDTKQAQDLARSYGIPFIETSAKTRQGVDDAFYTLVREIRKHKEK
Chain of KRAS G12S (P62937 whole entry): as the sequence (P62937 whole entry) above
Text: as §1, §2, §3
as §2, with “BRAF^RBDD” for “BRAF^RBD”

KRAS G12V = KRAS G12V (Homo sapiens, UniProt P01116+P62937, G12V); conditions: KRAS G12V; read-out: KRAS G12V FRET data IC50
Chain of KRAS G12V (P01116 1-169 isoform P01116-2 G12V limits assumed): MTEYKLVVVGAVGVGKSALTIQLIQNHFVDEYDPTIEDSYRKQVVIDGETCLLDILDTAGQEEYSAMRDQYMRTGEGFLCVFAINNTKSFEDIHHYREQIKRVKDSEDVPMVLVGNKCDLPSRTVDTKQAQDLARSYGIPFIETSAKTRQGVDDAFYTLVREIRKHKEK
Chain of KRAS G12V (P62937 whole entry): as the sequence (P62937 whole entry) above
Text: as §1, §2, §3
as §2, with “BRAF^RBDD” for “BRAF^RBD”

KRAS G13C = KRAS G13C (Homo sapiens, UniProt P01116+P62937, G13C)
Chain of KRAS G13C (P01116 1-169 isoform P01116-2 G13C): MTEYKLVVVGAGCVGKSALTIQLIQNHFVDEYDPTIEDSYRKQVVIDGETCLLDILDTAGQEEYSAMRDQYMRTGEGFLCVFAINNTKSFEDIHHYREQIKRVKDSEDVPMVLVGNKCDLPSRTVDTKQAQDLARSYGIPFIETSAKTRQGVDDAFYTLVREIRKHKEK
Chain of KRAS G13C (P62937 whole entry): as the sequence (P62937 whole entry) above
Text: as §1, §2, §3
as §2, with “BRAF^RBDD” for “BRAF^RBD”

KRAS G13D = KRAS G13D (Homo sapiens, UniProt P01116+P62937, G13D)
Chain of KRAS G13D (P01116 1-169 isoform P01116-2 G13D limits assumed): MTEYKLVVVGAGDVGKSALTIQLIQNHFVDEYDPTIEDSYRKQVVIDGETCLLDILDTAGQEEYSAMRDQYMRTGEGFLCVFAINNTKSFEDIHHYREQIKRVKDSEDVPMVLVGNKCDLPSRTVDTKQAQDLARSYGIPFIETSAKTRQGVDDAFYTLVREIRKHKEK
Chain of KRAS G13D (P62937 whole entry): as the sequence (P62937 whole entry) above
Text: as §1, §2, §3
as §2, with “BRAF^RBDD” for “BRAF^RBD”

KRAS WT = KRAS WT (Homo sapiens, UniProt P01116+P62937); conditions: KRAS WT; read-out: KRAS WT FRET data IC50
Chain of KRAS WT (P01116 1-169 isoform P01116-2 limits assumed): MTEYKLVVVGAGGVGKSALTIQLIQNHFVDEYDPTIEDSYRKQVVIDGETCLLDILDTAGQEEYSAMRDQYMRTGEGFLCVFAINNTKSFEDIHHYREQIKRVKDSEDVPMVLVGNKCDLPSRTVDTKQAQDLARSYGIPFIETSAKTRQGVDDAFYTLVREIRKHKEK
Chain of KRAS WT (P62937 whole entry): as the sequence (P62937 whole entry) above
Text: as §1, §2, §3
as §2, with “BRAF^RBDD” for “BRAF^RBD”

NRAS G12C = NRAS G12C (Homo sapiens, UniProt P01111+P62937, G12C); conditions: NRAS G12C; read-out: NRAS G12C FRET data IC50
Chain of NRAS G12C (P01111 whole entry G12C): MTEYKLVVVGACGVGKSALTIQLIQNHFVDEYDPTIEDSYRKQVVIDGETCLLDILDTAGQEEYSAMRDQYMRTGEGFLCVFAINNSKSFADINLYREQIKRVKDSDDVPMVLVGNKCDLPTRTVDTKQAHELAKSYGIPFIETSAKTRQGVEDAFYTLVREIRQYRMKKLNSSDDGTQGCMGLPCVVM
Chain of NRAS G12C (P62937 whole entry): as the sequence (P62937 whole entry) above
Text: as §1, §2, §3
as §2, with “BRAF^RBDD” for “BRAF^RBD”

[1] = read-out: KRAS G12C FRET data, IC50
[2] = read-out: KRAS G13C FRET data, IC50
[3] = KRAS G13D, read-out: KRAS G13D FRET data IC50
[4] = KRAS G12C, read-out: KRAS G12C FRET data IC50
[5] = KRAS G13C, read-out: KRAS G13C FRET data IC50

Chain of KRAS G12C (P01116 1-169 isoform P01116-2 G12C): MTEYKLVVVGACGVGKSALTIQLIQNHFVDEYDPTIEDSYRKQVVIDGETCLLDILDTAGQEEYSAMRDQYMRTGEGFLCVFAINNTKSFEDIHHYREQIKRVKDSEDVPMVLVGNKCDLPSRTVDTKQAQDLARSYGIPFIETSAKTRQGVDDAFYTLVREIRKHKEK
Chain of KRAS G12C (P62937 whole entry): as the sequence (P62937 whole entry) above

IC50 (KRAS G12D)	IC50 (KRAS G12S)	IC50 (KRAS G12V)	IC50 (KRAS G13C; [2])	IC50 (KRAS G13D; [3])	IC50 (KRAS WT)	IC50 (NRAS G12C)	IC50 (KRAS G12C; [4])	IC50 (KRAS G13C; [5])	IC50 (KRAS G13D; KRAS G13D FRET data IC50, KRAS G13D) [nM]	Compound	IC50 (KRAS G12C; [1])
–	–	> 10000 nM	–	–	> 10000 nM	1000 to 10000 nM	–	–	–	C=CC(=O)N1CC(OC[C@H](C(=O)N[C@H]2Cc3cccc(c3)-c3ccc4c(c3)c(c(-c3cccnc3[C@H](C)OC)n4CC)CC(C)(C)COC(=O)[C@@H]3CCCN(N3)C2=O)C(C)C)C1 (racemic) [Example A484]	–
–	1000 to 10000 nM	1000 to 10000 nM	1000 to 10000 nM	1000 to 10000 nM	1000 to 10000 nM	–	–	–	–	CCC(=O)N1CC[C@H](C(=O)N(C)[C@H](C(=O)N[C@H]2Cc3cc(O)cc(c3)-c3ccc4c(c3)c(c(-c3ccccc3CCOC)n4CC)CC(C)(C)COC(=O)[C@@H]3CCCN(N3)C2=O)C(C)C)C1 [Example A34]	100 to 1000 nM
1000 to 10000 nM	1000 to 10000 nM and > 10000 nM	1000 to 10000 nM and > 10000 nM	–	1000 to 10000 nM	1000 to 10000 nM and > 10000 nM	< 10 nM	10 to 100 nM and < 10 nM	100 to 1000 nM and 10 to 100 nM	–	CCn1c(-c2ccccc2CCOC)c2c3cc(ccc31)-c1cc(O)cc(c1)C[C@H](NC(=O)[C@H](C(C)C)N(C)C(=O)[C@H]1CCN(C(=O)C#CCN(C)C)C1)C(=O)N1CCC[C@H](N1)C(=O)OCC(C)(C)C2 [Example A038]	–
> 10000 nM	1000 to 10000 nM	100 to 1000 nM	–	1000 to 10000 nM	100 to 1000 nM	10 to 100 nM	10 to 100 nM	10 to 100 nM	–	C=CS(=O)(=O)N1CC[C@H](C(=O)N(C)[C@H](C(=O)N[C@H]2Cc3cc(O)cc(c3)-c3ccc4c(c3)c(c(-c3cccnc3COC)n4CC)CC(C)(C)COC(=O)[C@@H]3CCCN(N3)C2=O)C(C)C)C1 [Example A069]	–
> 10000 nM	> 10000 nM	> 10000 nM	1000 to 10000 nM	1000 to 10000 nM	> 10000 nM	> 10000 nM	–	–	–	CCn1c(-c2cnccc2COC)c2c3cc(ccc31)-c1cc(O)cc(c1)C[C@H](NC(=O)[C@H](C(C)C)N(C)CC(F)(F)F)C(=O)N1CCC[C@H](N1)C(=O)OCC(C)(C)C2 [Example A77]	1000 to 10000 nM
100 to 1000 nM	100 to 1000 nM	1000 to 10000 nM	100 to 1000 nM	100 to 1000 nM	100 to 1000 nM	100 to 1000 nM	–	–	–	CCn1c(-c2cnccc2COC)c2c3cc(ccc31)-c1cc(O)cc(c1)C[C@H](NC(=O)[C@H](C(C)C)N(C)C(=O)OC1CNC1)C(=O)N1CCC[C@H](N1)C(=O)OCC(C)(C)C2 [Example A81]	100 to 1000 nM
> 10000 nM	> 10000 nM	> 10000 nM	–	> 10000 nM	> 10000 nM	100 to 1000 nM	100 to 1000 nM	> 10000 nM	–	C=CC(=O)N1CC[C@H](C(=O)N(C)[C@H](C(=O)N[C@H]2Cc3nc(cs3)-c3ccc4c(c3)c(c(-c3cccnc3COC)n4CC)CC(C)(C)COC(=O)[C@@H]3CCCN(N3)C2=O)C(C)C)C1 [Example A094]	–
> 10000 nM	–	–	–	–	–	< 10 nM	< 10 nM	–	–	CCn1c(-c2cccnc2COC)c2c3cc(ccc31)-c1cc(O)cc(c1)C[C@H](NC(=O)[C@H](C(C)C)N(C)C(=O)[C@H]1CCN(C(=O)C#CCN3CCOCC3)C1)C(=O)N1CCC[C@H](N1)C(=O)OCC(C)(C)C2 [Example A095]	–
1000 to 10000 nM and > 10000 nM	100 to 1000 nM and > 10000 nM	1000 to 10000 nM and 10 to 100 nM	100 to 1000 nM and > 10000 nM	100 to 1000 nM and > 10000 nM	100 to 1000 nM and > 10000 nM	100 to 1000 nM and 1000 to 10000 nM	–	–	–	CCn1c(-c2cccnc2[C@H](C)OC)c2c3cc(ccc31)-c1cc(O)cc(c1)C[C@H](NC(=O)[C@H](C(C)C)N(C)C(=O)[C@H]1CCN(C(=O)OC(C)C)C1)C(=O)N1CCC[C@H](N1)C(=O)OCC(C)(C)C2 [Example A117]	1000 to 10000 nM and 10 to 100 nM
–	–	–	> 10000 nM	–	> 10000 nM	> 10000 nM	–	–	–	CCn1c(-c2cccnc2[C@H](C)OC)c2c3cc(ccc31)-c1cc(O)cc(c1)C[C@H](NS(=O)(=O)c1cn(C)c(C)n1)C(=O)N1CCC[C@H](N1)C(=O)OCC(C)(C)C2 [Example A197]	–
–	–	–	> 10000 nM	–	> 10000 nM	> 10000 nM	–	–	–	CCn1c(-c2cccnc2[C@H](C)OC)c2c3cc(ccc31)-c1cc(O)cc(c1)C[C@H](NS(=O)(=O)CC1CC1)C(=O)N1CCC[C@H](N1)C(=O)OCC(C)(C)C2 [Example A200]	–
–	–	–	–	–	–	–	–	–	> 10000	CCn1c(-c2cccnc2[C@H](C)OC)c2c3cc(ccc31)-c1csc(n1)C[C@H](NC(=O)[C@H](C(C)C)N(C)C(=O)C1COC1)C(=O)N1CCC[C@H](N1)C(=O)OCC(C)(C)C2 [Example A245]	–
–	–	–	–	> 10000 nM	–	–	–	–	–	CCn1c(-c2cccnc2[C@H](C)OC)c2c3cc(ccc31)-c1csc(n1)C[C@H](NC(=O)[C@H](C(C)C)N(C)C(=O)N1CC3(CCCN(C)C3=O)C1)C(=O)N1CCC[C@H](N1)C(=O)OCC(C)(C)C2 [Example A453]	–
–	> 10000 nM	> 10000 nM	–	> 10000 nM	> 10000 nM	1000 to 10000 nM	1000 to 10000 nM	> 10000 nM	–	C=CC(=O)N1CC[C@H](C(=O)N(C)[C@H](C(=O)N[C@H]2Cc3cccc(c3)-c3ccc4c(c3)c(c(-c3cc(CN(C)C)cnc3[C@H](C)OC)n4CC)CC(C)(C)COC(=O)[C@@H]3CCCN(N3)C2=O)C(C)C)C1 [Example A523]	–
100 to 1000 nM	10 to 100 nM	10 to 100 nM	–	100 to 1000 nM	100 to 1000 nM	–	10 to 100 nM	100 to 1000 nM	–	C=CC(=O)N1CC[C@H](C(=O)N(C)[C@H](C(=O)N[C@H]2Cc3cc(O)cc(c3)-c3ccc4c(c3)c(c(-c3cnccc3COC)n4CC)CC(C)(C)COC(=O)[C@@H]3CCCN(N3)C2=O)C(C)C)C1 [Examples A028]	–

Compound	IC50 (KRAS G12D)	IC50 (KRAS G12S)	IC50 (KRAS G12V)	IC50 (KRAS G13C; [2])	IC50 (KRAS G13D; [3])	IC50 (KRAS WT)	IC50 (NRAS G12C)	IC50 (KRAS G12C; [4])	IC50 (KRAS G13C; [5])	IC50 (KRAS G13D; KRAS G13D FRET data IC50, KRAS G13D) [nM]	IC50 (KRAS G12C; [1])
CCn1c(-c2cccnc2[C@H](C)OC)c2c3cc(ccc31)-c1cc(C#N)cc(c1)C[C@H](NC(=O)[C@H](C(C)C)N(C)C(C)=O)C(=O)N1CCC[C@H](N1)C(=O)OCC(C)(C)C2 (atropisomer, axis not shown) [Example A430]	> 10000 nM	> 10000 nM	> 10000 nM	> 10000 nM	> 10000 nM	> 10000 nM	> 10000 nM	–	–	–	> 10000 nM
CO[C@@H](C)c1ncccc1-c1c2c3cc(ccc3n1C)-c1csc(n1)C[C@H](NC(=O)[C@H](C(C)C)N(C)C(C)=O)C(=O)N1CCC[C@H](N1)C(=O)OCC(C)(C)C2 (racemic) [Example A103]	> 10000 nM	> 10000 nM	> 10000 nM	> 10000 nM	> 10000 nM	> 10000 nM	> 10000 nM	–	–	–	> 10000 nM
CCn1c(-c2cccnc2[C@H](C)OC)c2c3cc(ccc31)-c1cc(O)cc(c1)C[C@H](NS(=O)(=O)CC1CCC3(CNC3)C1)C(=O)N1CCC[C@H](N1)C(=O)OCC(C)(C)C2 (mixture of isomers) [Example A188]	–	> 10000 nM	–	–	> 10000 nM	> 10000 nM	> 10000 nM	–	–	–	> 10000 nM
CCn1c(-c2cccnc2[C@H](C)OC)c2c3cc(ccc31)-c1cc(O)cc(c1)C[C@H](NS(=O)(=O)N1CCN(C)CC1)C(=O)N1CCC[C@H](N1)C(=O)OCC(C)(C)C2 (racemic) [Example A193]	> 10000 nM	> 10000 nM	> 10000 nM	> 10000 nM	> 10000 nM	> 10000 nM	> 10000 nM	–	–	–	> 10000 nM

Source: patent US20230233569A1 (Revolution Medicines, Inc., priority 2020, published 2023)
